The text below walks through data of article PMC7178819, “6,7-Dimethoxy-2-phenethyl-1,2,3,4-tetrahydroisoquinoline amides and corresponding ester isosteres as multidrug resistance reversers” (Journal of Enzyme Inhibition and Medicinal Chemistry, 2020).

SMILES strings stand for the structures.

The target of data set [1] is T1, P-gp (Homo sapiens, UniProt P08183).
T1 construct: expressed in transfected cells; host or cells: MDCK-MDR1 (Madin-Darby Canine Kidney cells, gift of Prof. P. Borst, NKI-AVL)
T1 sequence (P08183 whole entry): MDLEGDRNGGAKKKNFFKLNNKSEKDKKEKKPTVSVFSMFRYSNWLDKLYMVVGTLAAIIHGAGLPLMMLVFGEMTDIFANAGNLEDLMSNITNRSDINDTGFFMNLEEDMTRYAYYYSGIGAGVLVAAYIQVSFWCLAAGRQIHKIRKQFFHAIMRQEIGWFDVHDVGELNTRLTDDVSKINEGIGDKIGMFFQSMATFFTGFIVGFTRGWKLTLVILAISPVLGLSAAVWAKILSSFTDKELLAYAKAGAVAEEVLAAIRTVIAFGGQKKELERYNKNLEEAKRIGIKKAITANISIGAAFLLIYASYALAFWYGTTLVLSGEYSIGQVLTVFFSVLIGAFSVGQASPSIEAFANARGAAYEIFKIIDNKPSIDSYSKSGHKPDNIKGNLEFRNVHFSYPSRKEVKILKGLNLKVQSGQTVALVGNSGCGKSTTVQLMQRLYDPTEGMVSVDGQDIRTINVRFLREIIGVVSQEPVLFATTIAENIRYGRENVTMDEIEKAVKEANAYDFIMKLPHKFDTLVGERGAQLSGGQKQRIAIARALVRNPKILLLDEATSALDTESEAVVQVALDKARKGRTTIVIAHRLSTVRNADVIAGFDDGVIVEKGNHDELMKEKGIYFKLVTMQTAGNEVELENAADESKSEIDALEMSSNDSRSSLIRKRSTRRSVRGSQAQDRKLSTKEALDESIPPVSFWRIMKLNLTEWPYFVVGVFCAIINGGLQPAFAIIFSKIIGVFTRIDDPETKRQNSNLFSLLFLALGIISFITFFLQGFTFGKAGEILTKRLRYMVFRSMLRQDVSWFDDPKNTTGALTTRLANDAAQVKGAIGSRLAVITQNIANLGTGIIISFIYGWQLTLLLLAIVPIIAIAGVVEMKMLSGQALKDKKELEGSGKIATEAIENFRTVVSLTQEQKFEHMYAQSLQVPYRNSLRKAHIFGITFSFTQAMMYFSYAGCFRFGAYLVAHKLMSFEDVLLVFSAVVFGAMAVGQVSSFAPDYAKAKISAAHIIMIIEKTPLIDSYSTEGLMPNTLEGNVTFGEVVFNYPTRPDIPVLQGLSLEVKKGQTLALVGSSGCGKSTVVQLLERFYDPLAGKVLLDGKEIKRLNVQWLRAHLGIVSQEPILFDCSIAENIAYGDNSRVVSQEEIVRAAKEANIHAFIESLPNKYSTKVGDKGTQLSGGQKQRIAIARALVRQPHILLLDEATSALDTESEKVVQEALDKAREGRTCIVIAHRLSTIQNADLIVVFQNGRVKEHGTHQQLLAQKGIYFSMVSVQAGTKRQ
Put plainly: Inhibition of Calcein-AM transport in MDCK-MDR1 cells. It is filed as cell-based. The following applies: Calcein-AM, MDCK-MDR1 cells; mean ± SEM of two experiments. The protocol:
These experiments were carried out as previously described by Teodori et al. with minor modifications. Each cell line (30 000 cells per well) was seeded into black CulturePlate 96/wells plate with 100 µL medium and allowed to become confluent overnight. 100 µL of test compounds were solubilised in culture medium and added to monolayers, with final concentrations ranging from 1 nM to 100 µM. 96/Wells plate was incubated for 30 min in a humidified atmosphere 5% CO2 at 37 °C. Calcein-AM was added in 100 µL of Phosphate Buffered Saline (PBS) to yield a final concentration of 2.5 µM and plate was incubated for 30 min in a humidified atmosphere 5% CO2 at 37 °C. Each well was washed 3 times with ice cold PBS. Saline buffer was added to each well and the plate was read with Victor3 (PerkinElmer) at excitation and emission wavelengths of 485 and 535 nm, respectively. In these experimental conditions, Calcein cell accumulation in the absence and in the presence of tested compounds was evaluated and fluorescence basal level was estimated with untreated cells. In treated wells the increase of fluorescence with respect to basal level was measured. EC50 values were determined by fitting the fluorescence increase percentage versus log[dose].
The interaction potency between the designed compounds and P-gp was evaluated by measuring the transport inhibition of the pro-fluorescent probe Calcein-AM, that is a P-gp substrate, in a cell line overexpressing P-gp (MDCK-MDR1)[47]. The P-gp interacting profile was further investigated with two other assays: the Apparent Permeability (Papp) determination (BA/AB) in Caco-2 cell monolayer[48]^,[49], and the ATP cell depletion in the MDCK-MDR1 cell line[50]. […] Papp determination measures the ratio between two fluxes: from the basolateral to apical compartments (BA, representative of passive diffusion) and from the apical to basolateral compartments (AB, representative of active transport). […] In the same manner, if (BA/AB) >2, the compound should probably be classified as a substrate.

For data set [2], the target named is T1, P-gp. Put plainly: ATP cell depletion (ATPlite assay) in MDCK-MDR1 cells. The class given is cell-based. To be noted: Yes/No. The protocol: The MDCK-MDR1 cells were seeded into 96-well microplate in 100 µL of complete medium at a density 20,000 cells per well. The plate was incubated overnight (O/N) in a humidified atmosphere 5% CO2 at 37 °C. The medium was removed and 100 µL of complete medium either alone or containing different concentrations (ranging from 1 to 100 µM) of test compounds was added. The plate was incubated for 2 h in a humidified 5% CO2 atmosphere at 37 °C. 50 µL of mammalian cell lysis solution was added to all wells and the plate shacked for five minutes in an orbital shaker. 50 µL of substrate solution was added to all wells and the plate shacked for five minutes in an orbital shaker. The plate was dark adapted for ten minutes and the luminescence was measured.
(§1) The interaction potency between the designed compounds and P-gp was evaluated by measuring the transport inhibition of the pro-fluorescent probe Calcein-AM, that is a P-gp substrate, in a cell line overexpressing P-gp (MDCK-MDR1)[47]. The P-gp interacting profile was further investigated with two other assays: the Apparent Permeability (Papp) determination (BA/AB) in Caco-2 cell monolayer[48]^,[49], and the ATP cell depletion in the MDCK-MDR1 cell line[50]. Taking into account the results of the combined tests, an interacting compound can be classified as substrate or inhibitor. Papp determination measures the ratio between two fluxes: from the basolateral to apical compartments (BA, representative of passive diffusion) and from the apical to basolateral compartments (AB, representative of active transport). […] In the same manner, if (BA/AB) >2, the compound should probably be classified as a substrate. […] The selectivity of ligands 1–26 was evaluated by detecting their activity towards the other ABC transporters MRP1 and BCRP, by measuring the inhibition of the efflux of Calcein-AM (i.e., also a MRP1 substrate) in cells overexpressing MRP1 (MDCK-MRP1 cells), and the inhibition of the efflux of the fluorescent probe Hoechst 33342 (i.e. a BCRP substrate) in cells overexpressing BCRP (MDCK-BCRP cells), respectively.

The nature of data set [3]: Apparent permeability (Papp) determination (BA/AB) in Caco-2 cell monolayer. To be noted: human, Caco-2 monolayer. The class given is in vitro ADME. How it is done:
Caco-2 cells were seeded onto a Millicell® assay system (Millipore), where a cell monolayer is set in between a filter cell and a receiver plate, at a density of 10 000 cells/well[46]. The culture medium was replaced every 48 h and the cells kept for 21 days in culture. The Trans Epithelial Electrical Resistance (TEER) of the monolayers was measured daily, before and after the experiment, using an epithelial volt-ohmmeter (Millicell®-ERS). Generally, TEER values greater than 1000 Ω for a 21 days culture, are considered optimal.
After 21 days of Caco-2 cell growth, the medium was removed from filter wells and from the receiver plate, which were filled with fresh HBSS buffer (Invitrogen). This procedure was repeated twice, and the plates were incubated at 37 °C for 30 min. After incubation time, the HBSS buffer was removed and drug solutions and reference compounds were added to the filter well at the concentration of 100 µM, while fresh HBSS was added to the receiver plate. The plates were incubated at 37 °C for 120 min. Afterwards, samples were removed from the apical (filter well) and basolateral (receiver plate) side of the monolayer to measure the permeability.
as §1
(In general: Caco-2 cells form a polarised layer with tight junctions and transporters.)

The nature of data set [4]: Stability test in human plasma (LC-MS/MS). The following applies: 1 µM, 37 °C; for half-life at 1 µM: human, human plasma. It is filed as in vitro ADME. How it is done:
(§2) Each sample was prepared adding 10 µL of working solution 1 to 100 µL of tested matrix (PBS or human plasma) in micro centrifuge tubes. The obtained solutions correspond to 1 µM of analyte.
After the incubation, the samples were added with 300 µL of ISTD solution and centrifuged (room temperature for 5 min at 10,000 rpm). The supernatants were transferred in auto sampler vials and dried under a gentle stream of nitrogen.
(§3) The dried samples were dissolved in 1.0 ml of 10 mM of formic acid in mQ water: acetonitrile 80:20 solution. The obtained sample solutions were analysed by LC-MS/MS methods described in Supplementary material.
For this purpose, a series of experiments were carried out, adding a known amount of analyte in both phosphate buffer solution (PBS) and in human plasma. The samples were analysed by LC-MS/MS method operating in Multiple Reaction Monitoring (MRM) mode[55].
The analyte concentration (1 µM) used during the stability tests is generally smaller than the corresponding Michaelis–Menten constant (KM); therefore, the enzymatic degradation rate is described by a first-order kinetic. Then, by plotting the natural logarithm of the quantitative data versus the incubation time, a linear function can be used and its slope represents the degradation rate (k).

A short description of data set [5]: Stability test in phosphate buffer solution (PBS). The class given is physicochemical. The following applies: 1 µM, 37 °C, up to 120 min. The protocol: as §2
Each set of samples was incubated in triplicate at four different times, 0, 30, 60 and 120 min at 37 °C. Therefore, the degradation profile of each analyte was represented by a batch of 12 samples (4 incubation times × 3 replicates). After the incubation, the samples were added with 300 µL of ISTD solution and centrifuged (room temperature for 5 min at 10,000 rpm). The supernatants were transferred in auto sampler vials and dried under a gentle stream of nitrogen.
as §3
Due to the presence of ester or amide groups in the structure of compounds 1–26, a study aimed to evaluate their susceptibility to spontaneous or enzymatic hydrolysis, was planned. For this purpose, a series of experiments were carried out, adding a known amount of analyte in both phosphate buffer solution (PBS) and in human plasma. The samples were analysed by LC-MS/MS method operating in Multiple Reaction Monitoring (MRM) mode[55]. […]

As a reminder, the EC50 is the concentration giving half of the maximal effect. For orientation: efflux ratio means the permeability from basolateral to apical divided by that in the opposite direction, in the common usage. One may read the half-life as the time in which the quantity being followed falls by half. Read a high half-life as slow loss. `COc1cncc(C(=O)Oc2ccc(CCN3CCc4cc(OC)c(OC)cc4C3)cc2)n1` [Compound 25, 4–(2-(6,7-Dimethoxy-3,4-dihydroisoquinolin-2(1H)-yl)ethyl)phenyl 6-methoxypyrazine-2-carboxylate]: the EC50 in data set [1] is 220 ± 40 nM. Further, the ATP cell depletion result in data set [2] was “No”. The efflux ratio at 120 min, 100 µM in data set [3] is 4.7. In data set [4], this compound registered a half-life at 1 µM of about 6 min. Besides, in data set [5], the “stability in PBS” value was “unmodified”.
As to `COc1cncc(C(=O)Nc2ccc(CCN3CCc4cc(OC)c(OC)cc4C3)cc2)n1` [Compound 12, N-(4–(2-(6,7-dimethoxy-3,4-dihydroisoquinolin-2(1H)-yl)ethyl)phenyl)-6-methoxypyrazine-2-carboxamide], in data set [1], the EC50 was 870 ± 170 nM. Besides, the ATP cell depletion entry in data set [2] is “No”. Further, in data set [3], the efflux ratio at 120 min, 100 µM amounted to 6. Further, the “stability in human plasma” value in data set [4] (up to 120 min) is “stable over 120 min”. Besides, the half-life at 1 µM in data set [4] was at least 240 min. In data set [5], the “stability in PBS” value was “unmodified”.
